This is an account of results in patent publication US20240018135A1, “COMPOUND HAVING INHIBITORY ACTIVITY AGAINST O-GLUSACASE AND USE THEREOF” (MEDIFRON DBT INC., priority 2020, published 2024).

Data set [1] addresses Human OGA (recombinant hOGA protein) (Homo sapiens (Human), UniProt O60502). Nature of the data set: Human OGA enzyme activity assay (fluorescence, 4-Methylumbelliferyl N-acetyl-β-D-glucosaminide substrate). The class given is biochemical. Particulars: for IC50: Table 1; for % of inhibition: Table 1, test concentration not given.
In data set [2] the target is bacterial homolog of O-GlcNAcase from Clostridium perfringens (Clostridium perfringens (strain 13 / Type A), UniProt Q8XL08). Particulars: cited from earlier work.
Another data set deals with human O-GlcNAcase (Homo sapiens (Human), UniProt O60502). Particulars: cited from earlier work.

Molecules are shown by their SMILES.

By IC50 is commonly meant the concentration at which inhibition is half-maximal. What is called melting point is the temperature, or range, at which the solid turns liquid. A word on the Ki: it is a measure of affinity in units of concentration, obtained from inhibition or displacement.

Sequence of Human OGA (recombinant hOGA protein) (O60502 whole entry): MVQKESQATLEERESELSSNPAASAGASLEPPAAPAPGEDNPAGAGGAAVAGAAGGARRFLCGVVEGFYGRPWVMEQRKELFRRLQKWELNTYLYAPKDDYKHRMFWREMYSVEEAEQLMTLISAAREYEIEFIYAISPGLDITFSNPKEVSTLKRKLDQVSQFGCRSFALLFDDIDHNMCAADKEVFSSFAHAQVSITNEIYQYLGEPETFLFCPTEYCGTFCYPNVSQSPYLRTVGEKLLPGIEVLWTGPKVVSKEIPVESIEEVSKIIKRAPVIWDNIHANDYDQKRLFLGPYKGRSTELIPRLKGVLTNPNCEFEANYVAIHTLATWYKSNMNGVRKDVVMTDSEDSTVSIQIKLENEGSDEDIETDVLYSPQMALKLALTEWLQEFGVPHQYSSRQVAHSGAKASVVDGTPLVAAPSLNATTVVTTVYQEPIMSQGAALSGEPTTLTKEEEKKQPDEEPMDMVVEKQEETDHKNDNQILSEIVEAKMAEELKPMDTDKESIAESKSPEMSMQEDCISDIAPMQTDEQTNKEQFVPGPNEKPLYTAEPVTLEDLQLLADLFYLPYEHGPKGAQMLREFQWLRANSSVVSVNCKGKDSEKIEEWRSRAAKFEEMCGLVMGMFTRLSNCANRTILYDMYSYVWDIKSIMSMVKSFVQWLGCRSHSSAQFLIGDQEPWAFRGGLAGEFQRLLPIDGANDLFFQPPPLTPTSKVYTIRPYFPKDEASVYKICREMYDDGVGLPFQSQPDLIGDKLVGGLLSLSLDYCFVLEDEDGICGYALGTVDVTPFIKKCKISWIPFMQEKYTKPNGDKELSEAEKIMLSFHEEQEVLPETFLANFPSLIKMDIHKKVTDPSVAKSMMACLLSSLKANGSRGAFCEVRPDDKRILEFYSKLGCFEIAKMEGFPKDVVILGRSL
Sequence of human O-GlcNAcase (O60502 whole entry): as above
Sequence of bacterial homolog of O-GlcNAcase from Clostridium perfringens (Q8XL08 31-1001 limits assumed): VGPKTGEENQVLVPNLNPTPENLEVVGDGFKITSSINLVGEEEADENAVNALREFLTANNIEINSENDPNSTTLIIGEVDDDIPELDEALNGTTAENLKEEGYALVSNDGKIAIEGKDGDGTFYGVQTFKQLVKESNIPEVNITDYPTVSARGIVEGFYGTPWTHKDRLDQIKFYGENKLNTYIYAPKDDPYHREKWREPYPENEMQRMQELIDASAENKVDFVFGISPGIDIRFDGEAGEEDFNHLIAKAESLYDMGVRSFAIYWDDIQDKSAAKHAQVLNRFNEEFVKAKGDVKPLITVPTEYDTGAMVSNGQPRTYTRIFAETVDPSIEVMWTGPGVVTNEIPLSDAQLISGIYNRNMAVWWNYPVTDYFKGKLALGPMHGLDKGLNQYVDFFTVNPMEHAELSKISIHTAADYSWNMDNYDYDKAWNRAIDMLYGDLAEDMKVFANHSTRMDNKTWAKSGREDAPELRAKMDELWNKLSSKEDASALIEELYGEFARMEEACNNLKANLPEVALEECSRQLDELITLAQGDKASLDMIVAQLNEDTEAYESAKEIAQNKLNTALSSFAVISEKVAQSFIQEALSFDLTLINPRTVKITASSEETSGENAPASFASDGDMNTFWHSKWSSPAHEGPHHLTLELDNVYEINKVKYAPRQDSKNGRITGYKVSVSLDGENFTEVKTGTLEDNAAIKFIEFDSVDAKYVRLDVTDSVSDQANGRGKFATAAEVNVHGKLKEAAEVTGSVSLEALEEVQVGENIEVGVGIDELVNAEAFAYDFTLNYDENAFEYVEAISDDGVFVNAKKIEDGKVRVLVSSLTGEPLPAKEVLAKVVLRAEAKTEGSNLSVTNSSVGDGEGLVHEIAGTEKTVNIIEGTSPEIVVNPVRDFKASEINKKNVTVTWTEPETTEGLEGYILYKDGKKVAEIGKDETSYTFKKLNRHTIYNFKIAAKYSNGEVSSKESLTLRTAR

Consider `CC(=O)Nc1ncc(CN2CCC(=CC(=O)Nc3ccc(F)cc3)CC2)s1` [Compound C-2, 2-(1-((2-acetamidothiazol-5-yl)methyl)piperidin-4-ylidene)-N-(4-fluorophenyl)acetamide], for which the melting point is 189 to 191 °C. For the same compound, in data set [1], the IC50 came to 170 nM and the “% of inhibition” value is given as 97.1%.

As to `CC(=O)Nc1ncc(CN2CCC(=CC(=O)Nc3ccc(Cl)cc3)CC2)s1` [Compound C-3, 2-(1-((2-acetamidothiazol-5-yl)methyl)piperidin-4-ylidene)-N-(4-chlorophenyl)acetamide], the melting point was in the range of 225 to 228 °C. Further, in data set [1], the half-maximal inhibitory concentration (IC50) stood at 140 nM and the “% of inhibition” value worked out at 97.3%.

Compound `CC(=O)Nc1ncc(CN2CCC(=CC(=O)Nc3ccc(C(C)C)cc3)CC2)s1` [Compound C-4, 2-(1-((2-acetamidothiazol-5-yl)methyl)piperidin-4-ylidene)-N-(4-isopropylphenyl)acetamide] had a melting point of 232 to 236 °C. Further, in data set [1], the half-maximal inhibitory concentration (IC50) came out at 230 nM and the “% of inhibition” value turned out to be 97.0%.

In turn, `COc1ccc(NC(=O)C=C2CCN(Cc3cnc(NC(C)=O)s3)CC2)cc1` [Compound C-5, 2-(1-((2-acetamidothiazol-5-yl)methyl)piperidin-4 ylidene)-N-(4-methoxyphenyl)acetamide] showed a melting point of 212 to 214 °C. In data set [1], the IC50 was 450 nM and the “% of inhibition” value was 94.8%.

The compound `COc1ccc(NC(=O)C=C2CCN(Cc3cnc(NC(C)=O)s3)CC2)cc1OC` [Compound C-6, 2-(1-((2-acetamidothiazol-5-yl)methyl)piperidin-4-ylidene)-N-(3,4-dimethoxyphenyl)acetamide] gave a melting point of 214 to 219 °C. In data set [1], the IC50 stood at 350 nM and the “% of inhibition” value is on record as 95.8%.

In the case of `COc1ccc(CNC(=O)C=C2CCN(Cc3cnc(NC(C)=O)s3)CC2)cc1` [Compound C-7, 2-(1-((2-acetamidothiazol-5-yl)methyl)piperidin-4-ylidene)-N-(4-methoxybenzyl)acetamide], the melting point was in the range of 222 to 224 °C. In data set [1], the IC50 stood at 80 nM and the “% of inhibition” value stood at 98.2%.

For `CC(=O)Nc1ncc(CN2CCC(=CC(=O)NC3CCCCC3)CC2)s1` [Compound C-8, 2-(1-((2-acetamidothiazol-5-yl)methyl)piperidin-4-ylidene)-N-cyclohexylacetamide], the melting point lay in the range of 222 to 224 °C. The “% of inhibition” value in data set [1] came to 97.7%.

Turning to `CC(C)C(=O)N[C@H]1c2nc(CCc3ccccc3)cn2[C@H](CO)[C@@H](O)[C@@H]1O` [GlcNAcstatin], the efficacy result in data set [2] is recorded as “picomolar”.

With `CC(=O)N[C@H]1c2nc(CC(=O)O)cn2[C@H](CO)[C@@H](O)[C@@H]1O` [gluco-nagstatin], the Ki at human O-GlcNAcase was 420 nM.
